Source: publication PMC8391922, “The Combined Effect of Branching and Elongation on the Bioactivity Profile of Phytocannabinoids. Part I: Thermo-TRPs” (Biomedicines, 2021)
Where two headings read alike, the source gives them in different places.

What was measured:
rat TRPV4 = target: T1, rat TRPV4 (Rattus norvegicus, UniProt Q9ERZ8); set-up: method as in PMID 21175579, PMID 21726418
T1 construct: expressed in transfected cells; host or cells: HEK-293

human TRPV1 [1] = target: T2, human TRPV1 (Homo sapiens, UniProt Q8NER1); set-up: method as in PMID 21175579
T2 construct: expressed in transfected cells; host or cells: HEK-293

rat TRPV3 = target: T3, rat TRPV3 (Rattus norvegicus, UniProt Q4QYD9); set-up: method as in PMID 21175579, PMID 21726418
T3 construct: expressed in transfected cells; host or cells: HEK-293
T3 sequence (Q4QYD9 1-791): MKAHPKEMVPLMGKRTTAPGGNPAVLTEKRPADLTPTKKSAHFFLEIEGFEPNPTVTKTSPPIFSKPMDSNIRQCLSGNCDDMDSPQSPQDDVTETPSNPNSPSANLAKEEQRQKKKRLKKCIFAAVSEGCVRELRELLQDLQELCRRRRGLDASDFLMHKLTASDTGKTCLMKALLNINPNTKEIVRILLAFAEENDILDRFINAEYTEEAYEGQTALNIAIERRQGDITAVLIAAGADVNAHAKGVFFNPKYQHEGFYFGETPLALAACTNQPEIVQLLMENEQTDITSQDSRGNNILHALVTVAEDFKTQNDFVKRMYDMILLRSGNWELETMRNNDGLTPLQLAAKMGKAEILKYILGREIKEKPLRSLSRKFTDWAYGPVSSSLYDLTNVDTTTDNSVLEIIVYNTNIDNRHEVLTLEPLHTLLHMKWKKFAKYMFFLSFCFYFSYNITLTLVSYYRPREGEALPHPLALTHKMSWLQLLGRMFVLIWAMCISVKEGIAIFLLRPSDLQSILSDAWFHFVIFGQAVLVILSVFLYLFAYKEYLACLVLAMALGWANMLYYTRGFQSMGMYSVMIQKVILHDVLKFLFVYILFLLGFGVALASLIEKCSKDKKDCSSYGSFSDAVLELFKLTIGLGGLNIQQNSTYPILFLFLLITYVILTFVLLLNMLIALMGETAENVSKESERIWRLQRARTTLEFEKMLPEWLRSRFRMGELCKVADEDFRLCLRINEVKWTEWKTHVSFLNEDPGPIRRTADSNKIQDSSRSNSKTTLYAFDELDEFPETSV

rat TRPA1 [2] = target: T4, rat TRPA1 (Rattus norvegicus, UniProt Q6RI86); set-up: method as in PMID 21175579; settings: cited from earlier work; for TRPA1 Efficacy (%ITC 100 μM): percentage of the effect of 100 μM allylisothiocyanate; for IC50: against agonist AITC 100 μM
T4 construct: expressed in transfected cells; host or cells: HEK-293

rat TRPV2 = target: T5, rat TRPV2 (Rattus norvegicus, UniProt Q9WUD2); set-up: method as in PMID 21175579, PMID 21726418; settings: cited from earlier work; for TRPV2 Efficacy (% IM 4 μM): percentage of the response to ionomycin 4 μM
T5 construct: expressed in transfected cells; host or cells: HEK-293
T5 sequence (Q9WUD2 1-761): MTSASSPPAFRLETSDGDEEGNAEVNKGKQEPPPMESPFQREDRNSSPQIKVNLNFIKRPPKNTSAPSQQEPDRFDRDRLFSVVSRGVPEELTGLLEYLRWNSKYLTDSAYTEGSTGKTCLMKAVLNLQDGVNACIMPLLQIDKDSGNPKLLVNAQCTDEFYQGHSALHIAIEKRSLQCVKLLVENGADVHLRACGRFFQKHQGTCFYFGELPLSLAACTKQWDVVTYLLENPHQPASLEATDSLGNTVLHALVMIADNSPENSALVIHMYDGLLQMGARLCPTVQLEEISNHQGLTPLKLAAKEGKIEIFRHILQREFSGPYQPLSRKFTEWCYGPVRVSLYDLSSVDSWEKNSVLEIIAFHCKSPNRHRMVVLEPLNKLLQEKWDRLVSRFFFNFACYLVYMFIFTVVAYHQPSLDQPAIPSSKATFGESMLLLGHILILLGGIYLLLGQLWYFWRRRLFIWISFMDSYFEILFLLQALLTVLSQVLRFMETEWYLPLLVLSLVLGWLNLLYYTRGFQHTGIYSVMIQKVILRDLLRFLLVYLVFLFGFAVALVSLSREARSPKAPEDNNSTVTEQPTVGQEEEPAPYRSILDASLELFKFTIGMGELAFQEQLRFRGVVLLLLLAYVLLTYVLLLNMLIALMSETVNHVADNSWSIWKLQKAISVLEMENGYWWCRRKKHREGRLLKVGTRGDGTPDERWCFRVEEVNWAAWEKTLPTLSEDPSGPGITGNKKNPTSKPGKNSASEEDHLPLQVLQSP

rat TRPM8 [3] = target: T6, rat TRPM8 (Rattus norvegicus, UniProt Q8R455); set-up: method as in PMID 21175579; settings: against agonist icilin 0.25 μM; read-out: IC50 TRPM8; cited from earlier work
T6 construct: expressed in transfected cells; host or cells: HEK-293

rat TRPA1 [4] = target: T4, rat TRPA1; test: TRPA1-mediated elevation of intracellular Ca2+ (Fluo-4) in transfected HEK-293 cells; assay type: cell-based
Experimental: (§1) Assays of rat TRPA1, TRPV2, TRPV3, TRPV4, and TRPM8 or human TRPV1 mediated elevation of intracellular Ca ^2+ in transfected HEK-293 cells were performed with a continuous monitoring of [Ca ^2+]i during the experiments. […] Cell fluorescence before and after the addition of various concentrations of test compounds was measured, normalizing the effects against the response to ionomycin (IM, 4 μM). The values of the effect on [Ca^2+]i in HEK-293 cells not transfected were used as baseline and subtracted from the values obtained from transfected cells. For TRPA1, agonist efficacy was expressed as a percentage of the effect on [Ca ^2+]i observed with 100 μM allylisothiocyanate. […] In the TRPV3 assay, TRPV3-expressing HEK293 cells were first sensitized with the structurally unrelated agonist 2-aminoethoxydiphenyl borate (100 μM). Antagonist/desensitizing behavior is evaluated against the agonist of the TRP analyzed by adding the compounds directly in the quartz cuvette 5 min before stimulation of cells with the agonist. […] Dose-response curve fitting (sigmoidal dose-response variable slope) and parameter estimation were performed with Graph-Pad Prism8 (GraphPad Software Inc., San Diego, CA, USA). All determinations were performed at least in triplicate.

rat TRPM8 [5] = target: T6, rat TRPM8; test: TRPM8 antagonism of icilin-induced intracellular Ca2+ elevation (Fluo-4) in transfected HEK-293 cells; assay type: cell-based; settings: IC50 TRPM8, antagonist; compound added 5 min before agonist icilin 0.25 μM
Experimental: as §1

human TRPV1 [6] = target: T2, human TRPV1; test: TRPV1-mediated elevation of intracellular Ca2+ (Fluo-4) in transfected HEK-293 cells; assay type: cell-based
Experimental: as §1

[7] = percentage of the response to ionomycin 4 μM; cited from earlier work

T2 sequence (Q8NER1 whole entry): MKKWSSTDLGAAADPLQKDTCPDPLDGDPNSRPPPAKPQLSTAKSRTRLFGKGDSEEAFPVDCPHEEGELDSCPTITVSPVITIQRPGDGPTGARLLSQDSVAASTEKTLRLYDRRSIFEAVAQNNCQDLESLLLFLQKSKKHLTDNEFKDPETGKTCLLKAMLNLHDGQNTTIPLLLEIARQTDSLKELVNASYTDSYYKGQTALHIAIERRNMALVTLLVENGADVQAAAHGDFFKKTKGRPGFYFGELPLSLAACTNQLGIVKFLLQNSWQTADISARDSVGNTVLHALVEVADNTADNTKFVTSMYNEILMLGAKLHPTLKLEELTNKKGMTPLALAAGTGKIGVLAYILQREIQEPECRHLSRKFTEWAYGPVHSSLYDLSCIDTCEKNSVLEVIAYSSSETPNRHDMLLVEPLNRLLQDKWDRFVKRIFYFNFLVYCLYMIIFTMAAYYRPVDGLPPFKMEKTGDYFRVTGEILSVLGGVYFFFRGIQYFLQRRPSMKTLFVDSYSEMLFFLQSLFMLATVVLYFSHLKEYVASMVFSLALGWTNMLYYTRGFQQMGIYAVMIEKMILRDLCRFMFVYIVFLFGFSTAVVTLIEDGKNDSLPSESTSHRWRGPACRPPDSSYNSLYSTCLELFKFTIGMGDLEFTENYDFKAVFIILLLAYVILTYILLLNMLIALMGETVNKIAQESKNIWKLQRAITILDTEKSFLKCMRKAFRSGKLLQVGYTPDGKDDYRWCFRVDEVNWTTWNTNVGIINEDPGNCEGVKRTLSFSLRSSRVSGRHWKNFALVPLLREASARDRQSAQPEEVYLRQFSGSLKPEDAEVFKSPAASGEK
T1 sequence (Q9ERZ8 whole entry): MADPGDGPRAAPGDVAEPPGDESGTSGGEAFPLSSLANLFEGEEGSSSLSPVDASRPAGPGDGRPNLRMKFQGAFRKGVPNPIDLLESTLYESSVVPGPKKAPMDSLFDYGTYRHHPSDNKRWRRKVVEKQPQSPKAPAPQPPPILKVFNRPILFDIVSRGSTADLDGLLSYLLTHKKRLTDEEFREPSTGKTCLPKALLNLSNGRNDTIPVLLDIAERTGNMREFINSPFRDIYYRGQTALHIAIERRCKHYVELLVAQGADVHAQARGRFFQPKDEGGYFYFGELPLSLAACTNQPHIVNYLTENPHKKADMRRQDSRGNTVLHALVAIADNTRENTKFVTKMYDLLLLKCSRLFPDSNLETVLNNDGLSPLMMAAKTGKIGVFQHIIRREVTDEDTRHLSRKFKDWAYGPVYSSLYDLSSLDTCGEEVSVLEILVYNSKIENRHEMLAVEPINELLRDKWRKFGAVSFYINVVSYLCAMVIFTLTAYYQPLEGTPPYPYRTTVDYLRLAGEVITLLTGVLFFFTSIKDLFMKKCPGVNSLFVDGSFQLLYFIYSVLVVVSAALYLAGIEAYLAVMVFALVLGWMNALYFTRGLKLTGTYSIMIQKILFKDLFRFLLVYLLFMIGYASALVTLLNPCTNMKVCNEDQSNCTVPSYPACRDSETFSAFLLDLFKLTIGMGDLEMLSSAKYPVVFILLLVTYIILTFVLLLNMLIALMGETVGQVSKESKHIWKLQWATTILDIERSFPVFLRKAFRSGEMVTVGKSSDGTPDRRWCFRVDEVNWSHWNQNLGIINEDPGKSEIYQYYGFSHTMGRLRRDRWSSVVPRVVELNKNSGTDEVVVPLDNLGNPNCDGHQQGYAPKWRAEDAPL
T4 sequence (Q6RI86 whole entry): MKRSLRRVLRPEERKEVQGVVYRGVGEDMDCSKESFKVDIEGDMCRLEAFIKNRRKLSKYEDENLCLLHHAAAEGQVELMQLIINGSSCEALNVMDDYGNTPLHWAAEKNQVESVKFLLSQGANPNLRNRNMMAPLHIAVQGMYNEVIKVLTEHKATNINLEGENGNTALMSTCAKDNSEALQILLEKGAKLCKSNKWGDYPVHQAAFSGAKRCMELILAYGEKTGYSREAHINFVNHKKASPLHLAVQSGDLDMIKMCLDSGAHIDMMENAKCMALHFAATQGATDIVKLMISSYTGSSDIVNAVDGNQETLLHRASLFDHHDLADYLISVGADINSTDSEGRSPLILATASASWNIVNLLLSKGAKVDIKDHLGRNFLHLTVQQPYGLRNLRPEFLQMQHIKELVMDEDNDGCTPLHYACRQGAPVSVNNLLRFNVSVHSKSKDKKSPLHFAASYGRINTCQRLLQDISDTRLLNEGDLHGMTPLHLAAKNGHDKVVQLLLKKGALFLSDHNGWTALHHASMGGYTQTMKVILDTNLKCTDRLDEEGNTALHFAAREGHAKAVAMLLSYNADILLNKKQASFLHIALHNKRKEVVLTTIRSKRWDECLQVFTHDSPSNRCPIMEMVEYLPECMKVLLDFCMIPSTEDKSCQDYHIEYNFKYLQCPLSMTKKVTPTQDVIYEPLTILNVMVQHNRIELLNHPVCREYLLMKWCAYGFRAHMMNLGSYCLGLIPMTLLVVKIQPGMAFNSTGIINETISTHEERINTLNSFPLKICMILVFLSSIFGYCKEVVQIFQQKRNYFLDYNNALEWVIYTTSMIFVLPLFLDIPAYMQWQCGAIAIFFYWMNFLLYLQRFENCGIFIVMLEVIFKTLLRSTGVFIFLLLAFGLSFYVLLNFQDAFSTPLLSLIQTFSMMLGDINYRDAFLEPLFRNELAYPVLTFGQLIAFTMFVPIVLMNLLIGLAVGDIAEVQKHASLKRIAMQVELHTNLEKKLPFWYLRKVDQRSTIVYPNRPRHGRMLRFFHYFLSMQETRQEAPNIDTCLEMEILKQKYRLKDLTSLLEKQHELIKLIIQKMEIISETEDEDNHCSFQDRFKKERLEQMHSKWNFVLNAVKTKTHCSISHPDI
T6 sequence (Q8R455 whole entry): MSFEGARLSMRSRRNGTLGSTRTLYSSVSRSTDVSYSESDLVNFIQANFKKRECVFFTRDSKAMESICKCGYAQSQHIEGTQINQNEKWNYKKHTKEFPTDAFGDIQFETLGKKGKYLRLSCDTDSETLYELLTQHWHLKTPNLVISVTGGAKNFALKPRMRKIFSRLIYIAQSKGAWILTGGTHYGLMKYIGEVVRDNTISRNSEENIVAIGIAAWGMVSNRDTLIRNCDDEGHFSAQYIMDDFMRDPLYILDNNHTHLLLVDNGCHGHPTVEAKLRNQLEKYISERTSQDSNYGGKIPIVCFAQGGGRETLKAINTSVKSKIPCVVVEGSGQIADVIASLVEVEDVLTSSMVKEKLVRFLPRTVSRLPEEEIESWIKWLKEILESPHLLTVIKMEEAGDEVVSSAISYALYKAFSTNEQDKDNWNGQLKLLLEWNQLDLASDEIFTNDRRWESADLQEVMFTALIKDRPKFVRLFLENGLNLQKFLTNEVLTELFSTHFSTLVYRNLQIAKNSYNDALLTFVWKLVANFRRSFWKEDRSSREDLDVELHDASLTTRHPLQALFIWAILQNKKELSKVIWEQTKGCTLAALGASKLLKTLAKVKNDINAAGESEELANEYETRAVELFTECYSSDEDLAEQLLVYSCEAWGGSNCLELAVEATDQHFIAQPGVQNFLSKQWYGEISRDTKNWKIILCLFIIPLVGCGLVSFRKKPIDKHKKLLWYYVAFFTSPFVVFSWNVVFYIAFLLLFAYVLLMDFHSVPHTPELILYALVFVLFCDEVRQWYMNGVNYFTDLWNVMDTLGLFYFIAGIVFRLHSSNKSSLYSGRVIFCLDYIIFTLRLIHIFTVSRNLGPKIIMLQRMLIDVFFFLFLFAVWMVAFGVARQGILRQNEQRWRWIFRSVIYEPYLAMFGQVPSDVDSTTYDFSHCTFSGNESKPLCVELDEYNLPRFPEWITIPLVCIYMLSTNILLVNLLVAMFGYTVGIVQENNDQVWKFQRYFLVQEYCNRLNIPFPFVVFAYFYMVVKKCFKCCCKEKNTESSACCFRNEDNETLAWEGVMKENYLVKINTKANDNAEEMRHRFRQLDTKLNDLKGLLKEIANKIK

## CCCCCc1cc(O)c(C/C=C(\C)CCC=C(C)C)c(O)c1 [7a, cannabigerol]
Rat TRPV4; [7]
  TRPV4 Efficacy (% IM 4 μM): 23.7 ± 1.8%
Rat TRPV4; read-out: IC50 TRPV4; against agonist GSK1016790A 10 nM; cited from earlier work
  IC50: 1.3 µM
Rat TRPV4; read-out: TRPV4 Potency EC50; half-maximal increase in [Ca2+]i; cited from earlier work
  EC50: 5.1 µM
Human TRPV1 [1]; against agonist capsaicin 0.1 μM; cited from earlier work
  IC50 TRPV1: sub/low micromolar range
Human TRPV1 [1]; [7]
  TRPV1 Efficacy (% IM 4 μM): 33.8 ± 2.3%
Rat TRPV3; against agonist thymol 100 μM; read-out: IC50 TRPV3; cited from earlier work
  IC50: > 50 µM
Rat TRPV3; half-maximal increase in [Ca2+]i; read-out: TRPV3 Potency EC50 (converted); cited from earlier work
  EC50: 1 µM
Rat TRPV3; [7]
  TRPV3 Efficacy (% IM 4 μM): 18.5 ± 0.7%
Rat TRPA1 [2]
  TRPA1 Efficacy (%ITC 100 μM): 99.9 ± 1.1%
Rat TRPV2
  TRPV2 Efficacy (% IM 4 μM): 73.6 ± 1.2%

## CCCCCc1cc(O)c2c(c1)OC(C)(CCC=C(C)C)C=C2 (stereo not drawn) [8a, cannabichromene]
Rat TRPV4; against agonist GSK1016790A 10 nM; read-out: IC50 TRPV4; cited from earlier work
  IC50: 9.9 µM
Rat TRPV4; half-maximal increase in [Ca2+]i; read-out: TRPV4 Potency EC50; cited from earlier work
  EC50: 0.6 µM
Rat TRPV4; [7]
  TRPV4 Efficacy (% IM 4 μM): 22.9 ± 1.2%
Human TRPV1 [1]; against agonist capsaicin 0.1 μM; read-out: IC50 TRPV1; cited from earlier work
  IC50: > 50 µM
Human TRPV1 [1]; [7]
  TRPV1 Efficacy (% IM 4 μM): < 10%
Rat TRPV3; [7]
  TRPV3 Efficacy (% IM 4 μM): 20.2 ± 0.4%
Rat TRPV3; read-out: IC50 TRPV3; against agonist thymol 100 μM; cited from earlier work
  IC50: > 100 µM
Rat TRPV3; read-out: TRPV3 Potency EC50; half-maximal increase in [Ca2+]i; cited from earlier work
  EC50: 1.9 µM
Rat TRPA1 [2]; read-out: IC50 TRPA1 (converted)
  IC50: 0.37 µM
Rat TRPA1 [2]
  TRPA1 Efficacy (%ITC 100 μM): 119.4 ± 3.1%
Rat TRPM8 [3]
  IC50: 40.7 µM
Rat TRPV2; against agonist CBD 2 μM, read-out: IC50 TRPV2 (converted)
  IC50: 6.5 µM
Rat TRPV2
  TRPV2 Efficacy (% IM 4 μM): < 10%

## CCCCCc1cc(O)c2c(c1)OC(C)(C)c1ccc(C)cc1-2 [9a, cannabinol]
Human TRPV1 [1]; [7]
  TRPV1 Efficacy (% IM 4 μM): <10 <10%
Human TRPV1 [1]; read-out: IC50 TRPV1; against agonist capsaicin 0.1 μM; cited from earlier work
  IC50: > 50 µM
Rat TRPA1 [2]
  TRPA1 Efficacy (%ITC 100 μM): 83.3 ± 12.0%
Rat TRPA1 [2]; read-out: IC50 TRPA1
  IC50: 0.4 µM

## CCCCCCC(C)(C)c1cc(O)c2c(c1)OC(C)(C)c1ccc(C)cc1-2 [9b, Depentyl-α,α-dimethylheptyl-cannabinol]
Rat TRPA1 [4]
  EC50: 2.1 ± 0.9 µM
  IC50: 3.2 ± 0.6 µM
Rat TRPA1 [4]; percentage of the effect of 100 μM allylisothiocyanate on [Ca2+]i, HEK-293
  TRPA1 Efficacy (%ITC 100 μM): 132.3 ± 7.9%
Rat TRPM8 [5]
  IC50: 0.98 ± 0.12 µM
Human TRPV1 [6]
  IC50: > 100 µM
Human TRPV1 [6]; percentage of the response to ionomycin 4 μM, HEK-293
  TRPV1 Efficacy (% IM 4 μM): <10 <10%
